The test system of assay [1] is C57BL/6J mice. Put plainly: Glomerular hypertrophy and glomerular mesangial expansion (PAS staining of kidney). The following applies: treatment group vs diabetes group, 10 mg/kg/day oral, 12 weeks. In kind it is in vivo. Here is the method:
For morphological analysis for examining glomerular hypertrophy and glomerular mesangial cell formation, a staining method was used as disclosed previously (Lee E A, Seo J Y, Jiang Z, Yu M R, Kwon M K, Ha H, Lee H B: Reactive oxygen species mediate high glucose-induced plasminogen activator inhibitor-1 up-regulation in mesangial cells and in diabetic kidney. Kidney Int. 67:1762-71, 2005). As described in Example 10, diabetes was induced in mice that were then treated with 1-(pyridin-2-yl)-3-phenyl-4-propyl-1H-pyrazol-5-ol.HCl, the compound of Example 1, and scarified 12 weeks later. After cardiac perfusion with 0.1 M PBS (phosphate-buffered saline), tissue fixation was performed overnight with 2% PLP (paraformaldehyde-lysine-periodate). […] In one renal tissue, 30 glomeruli were scanned, and measured for size and mesangial cell formation, using Image-Pro Plus 4.5 Software (MEDIA CYBERNETICS). The glomerular size was calculated according to Equation 1. […] Data of FIG. 1 are expressed as mean±standard error (SE) from 8 to 12 mice per group. Statistic comparison among the groups was analyzed by ANOVA and Fisher's least significant difference test, with significance at p<0.05. *P<0.05 vs. WT, †P<0.05 vs DM.

Assay [2] relates to collagen Iα1 expression in proximal tubular cells (mProx24). Put plainly: Inhibitory effect on collagen Iα1 expression in proximal tubular cells (hTGF-β1 stimulated, real-time PCR). The following applies: Mus musculus. It counts as cell-based. Here is the method:
mProx24, which is a name of the proximal tubular cells derived from proximal tubule segments obtained by finely sectioning the kidney of adult C57BL6/J mice, was granted from Professor Sugaya, St. Marianna University School of Medicine, Kanagawa, Japan. mProx24 was cultured in DMEM (Dulbecco's modified Eagle's medium) supplemented with 10% fetal calf serum (FCS, Gibco), 100 U/ml penicillin, 100 μg/ml streptomycin, and 44 mM NaHCO3 at 37° C. in a 5% CO2 atmosphere. For quantitation of RNA expression, the cells were cultured in 6-well plates. When the cells grew 90% confluent, the medium was changed with a fresh 0.15% FCS (Gibco)-supplemented DMEM. Incubation in this medium for 24 hrs halted the cell growth to synchronize the growth cycle in the cells. Compounds of Examples 1 to 9 and Comparative Example were respectively dissolved in DMSO (dimethylsulfoxide) to form a concentration of 50 mM, and subjected to serial dilution to 10 mM, 1 mM, 0.1 mM, and 0.01 mM. 10 mM, 1 mM, 0.1 mM, and 0.01 mM solutions of each of the compounds of Examples 1 to 9 and Comparative Example were 1,000-fold diluted in 0.15% FCS (Gibco)-supplemented DMEM to form final concentrations of 10 μM, 1 μM, 0.1 μM, and 0.01 μM, respectively. In addition, 0 μM (DMSO 1 μL) was used. The cells were incubated for 1 hr in the dilutions and then for 6 hrs in the presence of 5 ng/ml recombinant human transforming growth factor-β1 (hTGF-β1, R&D Systems). For the control, hTGF-β1 was not used. Total RNA was extracted from mProx24 using Trizol (Invitrogen). For quantitation of mRNA expression, a reaction volume of 20 μL including cDNA transcripts, primer pairs, and SYBR Green PCR Master Mix (Applied Biosystems) was subjected to real-time PCR with the aid of StepOnePlus (Applied Biosystems) (real-time PCR condition: 95° C., 10 min→40 thermal cycles of denaturation at 95° C. for 15 sec and primer annealing at 60° C. for 1 min→95° C. for 15 sec, 60° C. for 1 min, and 95° C. for 15 sec to measure a melting curve). Quantitation was normalized to 18S rRNA expression level. A pair of primers for mouse collagen Iα1 were 5′-[…]-3′(SEQ ID NO: 13) and 5′-[…]-3′ (SEQ ID NO: 14). Forward and reverse primers for mouse r18S rRNA were 5′-CGAAAGCATTTGCCAAGAAT-3′ (SEQ ID NO: 11) and 5′-AGTCGGCATCGTTTATGGTC-3′ (SEQ ID NO: 12), respectively.
Experiment results are given in Tables 3 to 12 and FIGS. 4 to 13. Tables 3 to 12 and FIGS. 4 to 13 show inhibitory effects of the compounds of Examples 1 to 9 and Comparative Example 1 on collagen Iα1 expression in proximal tubular cells.
Data of Tables 3 to 12 and FIGS. 4 to 13 are measurements of experiments repeated three to five times for each concentration, and are expressed as mean±standard error (SE). Statistic comparison among the groups was analyzed by ANOVA and Fisher's least significant difference test, with significance at p<0.05. *P<0.05 vs. WT, †P<0.05 vs. DM.
In Tables 3 to 12, mean values of expression level ratios of collagen Iα1 (Col1α) to 18S rRNA (18S), and % inhibition against collagen Iα1 expression for each group are shown, together with IC50 value (μM). In this regard, % inhibition means relative inhibition to 100% for the control and 0% for the group that was treated with hTGF-β1 but not with any of the compounds of Examples or Comparative Example.
In general terms: Real-time PCR tracks product formation cycle by cycle.

As a reminder, the inhibition is the drop in the measured response relative to a control, in per cent. Usually IC50 stands for the point on the concentration scale where inhibition reaches its midpoint. With `CCCc1c(-c2ccccc2)nn(-c2ccccn2)c1O.Cl` [Compound 18-278, 1-(pyridin-2-yl)-3-phenyl-4-propyl-1H-pyrazol-5-ol.HCl], in assay [1], the “glomerular mesangial expansion (fractional mesangial area)” value is “reduced to the level of the control” and the “glomerular size (glomerular volume)” value is on record as “significantly smaller than that of the diabetes group”. Moreover, the mrna remaining at 0.01 µM in assay [2] (Col1, 0.01 μM compound, mProx24, 5 ng/ml hTGF-β1 6 hrs, relative to hTGF-β1 alone = 1, read-out: Mean expression level ratio of collagen Iα1 (Col1α) to 18S rRNA) was found to be 82.1%. For the same compound, in assay [2] (Col1, 0.1 μM compound, mProx24, 5 ng/ml hTGF-β1 6 hrs, relative to hTGF-β1 alone = 1, read-out: Mean expression level ratio of collagen Iα1 (Col1α) to 18S rRNA), the mrna remaining at 0.1 µM was found to be 70.1%. Besides, the mrna remaining at 1 µM in assay [2] (Col1, 1 μM compound, mProx24, 5 ng/ml hTGF-β1 6 hrs, relative to hTGF-β1 alone = 1, read-out: Mean expression level ratio of collagen Iα1 (Col1α) to 18S rRNA) was determined as 51.6%. For the same compound, in assay [2] (Col1, 10 μM compound, mProx24, 5 ng/ml hTGF-β1 6 hrs, relative to hTGF-β1 alone = 1, read-out: Mean expression level ratio of collagen Iα1 (Col1α) to 18S rRNA), the mrna remaining at 10 µM is 36.9%. Also, the inhibition at 0.01 µM in assay [2] (0.01 μM compound, mProx24, 100% = control without hTGF-β1, 0% = hTGF-β1 alone, read-out: expression inhibition rate (collagen Iα1)) stood at 20%. The inhibition at 0.1 µM in assay [2] (0.1 μM compound, mProx24, 100% = control without hTGF-β1, 0% = hTGF-β1 alone, read-out: expression inhibition rate (collagen Iα1)) worked out at 33.5%. Also, the inhibition at 1 µM in assay [2] (1 μM compound, mProx24, 100% = control without hTGF-β1, 0% = hTGF-β1 alone, read-out: expression inhibition rate (collagen Iα1)) was found to be 54.2%. Also, the inhibition at 10 µM in assay [2] (10 μM compound, mProx24, 100% = control without hTGF-β1, 0% = hTGF-β1 alone, read-out: expression inhibition rate (collagen Iα1)) amounted to 70.7%. In addition, the IC50 in assay [2] (mProx24, hTGF-β1 stimulated, read-out: IC50 (inhibition of collagen Iα1 expression)) was determined as 742 nM.

The values are drawn from patent US10047067B2, “Composition for treating kidney disease comprising pyrazole derivative” (Ewha University-Industry Collaboration Foundation, priority 2012, dated 2018).
